Earlier results, collected in paper PMC3010531 (Journal of the American Chemical Society, 2010).

Legend:
[1] = target: mH2A1.2 (Homo sapiens, UniProt O75367); conditions: splice-variant; ref 13c
[2] = target: mH2A1.1 (Homo sapiens, UniProt O75367); conditions: ref 13c
[3] = target: mH2A1.1 (G224E) (Homo sapiens, UniProt O75367, G224E); conditions: point-mutant; ref 13c
mH2A1.1 (G224E), sequence (O75367 whole entry G224E, species assumed): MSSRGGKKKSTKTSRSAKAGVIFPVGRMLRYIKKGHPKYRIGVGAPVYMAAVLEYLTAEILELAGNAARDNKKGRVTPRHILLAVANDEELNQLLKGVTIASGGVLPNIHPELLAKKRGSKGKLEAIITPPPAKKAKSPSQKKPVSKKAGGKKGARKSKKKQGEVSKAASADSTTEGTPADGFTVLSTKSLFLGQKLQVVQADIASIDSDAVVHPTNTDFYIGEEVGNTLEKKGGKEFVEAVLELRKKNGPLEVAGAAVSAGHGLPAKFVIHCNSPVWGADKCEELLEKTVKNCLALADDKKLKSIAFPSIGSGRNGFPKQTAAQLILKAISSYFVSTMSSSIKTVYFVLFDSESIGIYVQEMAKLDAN

mH2A1.2, sequence (O75367 162-372 isoform O75367-1): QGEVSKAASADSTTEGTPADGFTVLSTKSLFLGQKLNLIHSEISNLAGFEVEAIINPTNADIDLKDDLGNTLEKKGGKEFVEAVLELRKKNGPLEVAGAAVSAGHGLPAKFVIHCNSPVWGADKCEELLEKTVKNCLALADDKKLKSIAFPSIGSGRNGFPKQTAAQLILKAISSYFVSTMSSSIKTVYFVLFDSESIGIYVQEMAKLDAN
mH2A1.1, sequence (O75367 184-367 limits assumed, species assumed): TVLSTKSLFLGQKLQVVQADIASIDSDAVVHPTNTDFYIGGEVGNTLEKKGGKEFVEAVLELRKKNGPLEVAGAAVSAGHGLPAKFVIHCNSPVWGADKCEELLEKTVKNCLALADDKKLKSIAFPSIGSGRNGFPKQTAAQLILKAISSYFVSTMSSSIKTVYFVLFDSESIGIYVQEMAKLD

## Nc1ncnc2c1ncn2[C@@H]1O[C@H](COP(=O)(O)OP(=O)(O)OC[C@H]2OC(O)[C@H](O)[C@@H]2O)[C@@H](O)[C@H]1O (stereo partly drawn) [ADPR, ADP-ribose]
[1]
  binding of ADPR by mH2A1.2: does not bind ADPR
[2]
  affinity of free ADPR for mH2A1.1: modest, in the μM range
[3]
  binding of ADPR by mH2A1.1 (G224E): abolishes ADPR binding
